US20240132475A1, “SUBSTITUTED PYRAZOLYL COMPOUNDS AS MALT-1 INHIBITORS” (AURIGENE ONCOLOGY LIMITED, priority 2021, published 2024)

Biological target: T1, MALT-1 (Isoform 1) (Homo sapiens, UniProt Q9UDY8)
T1 construct: using recombinant MALT-1 (Isoform 1, aa-840) generated in house; made in house
T1 sequence (Q9UDY8 1-824): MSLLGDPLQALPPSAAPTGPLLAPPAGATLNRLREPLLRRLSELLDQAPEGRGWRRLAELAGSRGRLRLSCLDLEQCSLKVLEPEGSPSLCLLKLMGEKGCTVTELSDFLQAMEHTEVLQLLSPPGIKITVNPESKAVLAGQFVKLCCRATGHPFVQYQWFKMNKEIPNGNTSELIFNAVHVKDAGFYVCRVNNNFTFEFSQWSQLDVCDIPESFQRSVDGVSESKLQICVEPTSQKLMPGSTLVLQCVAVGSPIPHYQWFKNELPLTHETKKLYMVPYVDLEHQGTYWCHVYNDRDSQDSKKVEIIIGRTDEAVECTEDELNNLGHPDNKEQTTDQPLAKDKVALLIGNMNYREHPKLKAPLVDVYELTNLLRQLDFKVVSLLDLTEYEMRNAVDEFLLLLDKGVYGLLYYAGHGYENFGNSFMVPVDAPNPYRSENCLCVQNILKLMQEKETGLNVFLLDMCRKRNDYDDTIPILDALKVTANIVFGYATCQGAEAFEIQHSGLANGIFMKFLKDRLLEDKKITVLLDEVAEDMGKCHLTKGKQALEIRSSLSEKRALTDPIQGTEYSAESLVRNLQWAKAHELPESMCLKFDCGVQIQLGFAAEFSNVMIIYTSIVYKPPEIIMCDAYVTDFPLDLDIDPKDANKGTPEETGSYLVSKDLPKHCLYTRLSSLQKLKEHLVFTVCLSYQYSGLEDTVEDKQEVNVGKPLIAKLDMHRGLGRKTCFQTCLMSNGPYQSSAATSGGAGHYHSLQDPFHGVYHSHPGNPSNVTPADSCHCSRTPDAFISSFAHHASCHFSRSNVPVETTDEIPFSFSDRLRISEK
Test: MALT-1 (Isoform 1) enzyme fluorescent biochemical assay
Details: for IC50: dose-response, sigmoidal curve fit, reported as groups A, B, C; for inhibition at 1 µM: read-out: Percent Inhibition (1 μM)
Description: The potency of compounds to inhibit MALT-1 (Isoform 1) enzyme was tested in a Fluorescent assay using recombinant MALT-1 (Isoform 1, aa-840) generated in house. The assay buffer was 50 mM HEPES (pH 7.5), 100 mM NaCl, 10 mM DTT, 1 mM EDTA, 0.9 M sodium citrate, 0.01% CHAPS. 1.5 nM of MALT-1 enzyme was incubated with test compounds ([…]) (1% DMSO) in the presence of buffer for 30 minutes at 30° C. The protease reaction was initiated by adding […] of AC-LRSR-MAC (Peptide International, USA) substrate and incubated for 240 min. After 240 min incubation, fluorescence emission of the samples at 460 nm was measured at an excitation of 355 nm. The percent inhibition was calculated using the following formula: […]. IC50 values were determined by fitting the dose-response data to sigmoidal curve fitting equation using Graph pad prism software V8.
ND represents Not Determined.

[1] = test compound 1 μM, recombinant MALT-1 1.5 nM

IC50	inhibition at 1 µM [1]	inhibition at 10 µM (test compound 10 μM (stated in the cell), recombinant MALT-1 1.5 nM, read-out: Percent Inhibition (10 μM))	Percent Inhibition (1 μM) [1]	SMILES
251 to 1000 nM	55%			N#Cc1cc(NC(=O)c2cnn(Cc3ccc(Cl)cc3)c2C(F)(F)F)cnc1-n1nccn1 [Compound 9, 1-(4-chlorobenzyl)-N-(5-cyano-6-(2H-1,2,3-triazol-2-y1)pyridin-3-yl)-5-(trifluoromethyl)-1H-pyrazole-4-carboxamide]
251 to 1000 nM	81%			COc1ncc(NC(=O)c2cnn(Cc3cccc(F)c3Cl)c2C(F)(F)F)cc1Cl [Compound 37, 1-(2-chloro-3-fluorobenzyl)-N-(5-chloro-6-methoxypyridin-3-y1)-5-(trifluoromethyl)-1H-pyrazole-4-carboxamide]
> 1000 nM	44%			N#Cc1cc(NC(=O)c2cnn(Cc3ccc(F)cc3)c2C(F)(F)F)cnc1-n1nccn1 [Compound 10, N-(5-cyano-6-(2H-1,2,3-triazol-2-yl)pyridin-3-yl)-1-(4-fluorobenzyl)-5-(trifluoromethyl)-1H-pyrazole-4-carboxamide]
> 1000 nM		83%		CC(c1cccc(F)c1)n1ncc(C(=O)Nc2cnc(-n3nccn3)c(Cl)c2)c1C(F)(F)F (single isomer, unassigned) [Compound 4a]
< 250 nM	95%			Cc1c(F)cccc1Cn1ncc(C(=O)Nc2cnc(-n3nccn3)c(C(F)(F)F)c2)c1C(F)(F)F [Compound 31, N-(6-(2H-1,2,3-triazol-2-y1)-5-(trifluoromethyl)pyridin-3-y1)-1-(3-fluoro-2-methylbenzy1)-5-(trifluoromethyl)-1H-pyrazole-4-carboxamide]
< 250 nM			99%	CC(c1ccccc1)n1ncc(C(=O)Nc2cnc(-n3nccn3)c(C#N)c2)c1C(F)(F)F (single isomer, unassigned) [Compound 2a]
< 250 nM	100%			Cc1c(F)cccc1C(C)n1ncc(C(=O)Nc2cnc(-n3nccn3)c(C#N)c2)c1C(F)(F)F (stereo not drawn) [Compound 52, N-(5-cyano-6-(2H-1,2,3-triazol-2-yl)pyridin-3-yl)-1-(1-(3-fluoro-2-methylphenyl)ethyl)-5-(trifluoromethyl)-1H-pyrazole-4-carboxamide]
< 250 nM	100%			CC(c1cccc(Cl)c1)n1ncc(C(=O)Nc2cnc(-n3nccn3)c(C#N)c2)c1C(F)(F)F (stereo not drawn) [Compound 51, 1-(1-(3-chlorophenyl)ethyl)-N-(5-cyano-6-(2H-1,2,3-triazol-2-y1)pyridin-3-y1)-5-(trifluoromethyl)-1H-pyrazole-4-carboxamide]
251 to 1000 nM	77%			N#Cc1cc(NC(=O)c2cnn(Cc3cccc(F)c3C(F)F)c2C(F)(F)F)cnc1-n1nccn1 [Compound 56, N-(5-cyano-6-(2H-1,2,3-triazol-2-yl)pyridin-3-y1)-1-(2-(difluoromethyl)-3-fluorobenzyl)-5-(trifluoromethyl)-1H-pyrazole-4-carboxamide]
251 to 1000 nM	88%			CC(c1cccc(Cl)c1)n1ncc(C(=O)Nc2cnc(-n3nccn3)c(Cl)c2)c1C(F)(F)F (stereo not drawn) [Compound 49, N-(5-chloro-6-(2H-1,2,3-triazol-2-yl)pyridin-3-yl)-1-(1-(3-chlorophenyl)ethyl)-5-(trifluoromethyl)-1H-pyrazole-4-carboxamide]
> 1000 nM	42%			COc1cc(F)cc(Cn2ncc(C(=O)Nc3cnc(-n4nccn4)c(C#N)c3)c2C(F)(F)F)c1 [Compound 35, N-(5-cyano-6-(2H-1,2,3-triazol-2-yl)pyridin-3-yl)-1-(3-fluoro-5-methoxybenzyl)-5-(trifluoromethyl)-1H-pyrazole-4-carboxamide]
251 to 1000 nM	71%			O=C(Nc1cncc(C(F)(F)F)c1)c1cnn(Cc2cccc(F)c2Cl)c1C(F)(F)F [Compound 42, 1-(2-chloro-3-fluorobenzyl)-5-(trifluoromethyl)-N-(5-(trifluoromethyl)pyridin-3-yl)-1H-pyrazole-4-carboxamide]
